# Measured values from patent US20200190062A1, “HETEROCYCLIC COMPOUND AND PHARMACEUTICAL COMPOSITION COMPRISING SAME” (BEYONDBIO INC., priority 2015, published 2020).
# Structures can show the parent of a compound that is named as a salt.
# Tests used:
# Assay in all cases: Inhibition of cancer cell proliferation (MTT)
# Type in all cases: cell-based, human
# NCI-H23 = tested on: NCI-H23
# Description: (§1) A test was conducted to confirm whether the compounds obtained in the above Examples can inhibit proliferation of human colon carcinoma cell line HCT116, glioblastoma cell lines U-87MG and T98G, neuroblastoma cell lines SH-SYSY and SK-N-SH, and lung cancer cell lines A549 and NCI-H23.
# (§2) HCT116, U-87MG, SH-SYSY, SK-N-SH and A549 cells were culured in DMEM medium containing 10% FBS. T98G cells were cultured in MEM medium containing 10% FBS and NCI-H23 cells were cultured in […] medium containing 10% FBS. In order to analyze an inhibition of proliferation, HCT116 cells were dispensed in 2000 cells/well into 96 well plate, and SH-SYSY, SK-N-SH, U-87MG, T98G, A549, and NCI-H23 cells were dispensed in 3000 cells/well into 96 well plate. And then, the cells were cultured at 5% CO2 and 37° C. for 16 hrs to allow the cells to attach to the wells. The compounds of the above Examples were added to each well at a concentration of 0.004, 0.013, 0.04, 0.12, 0.37, 1.1, 3.3, and 10 uM, and the culture volume was adjusted to 100 ul. A control group was treated with dimethylsulfoxide (DMSO) at the same concentration, 0.08%, as used to treat the test compounds. Afterwards, cells were cultured at 5% CO2 and 37° C. for 72 hrs. And then, 10 ul of the solution of MTT (3-(4,5-dimethylthiazol-2-yl)-2,5-diphenyltetrazolium bromide) dissolved in PBS at 5 mg/ml was added to each well to identify viable cells and the cells were cultured for further 2 hrs. The culture solution was removed, 100 ul of DMSO was added to dissolve the formed formazan and then an absorbance was measured at 535 nm. Based on the absorbance of the control cells not treated with the compounds, the amounts of the viable cells according to the concentration of the compounds were calculated. GI50 (growth inhibition 50) value which is the concentration of the compound to inhibit cancer cell proliferation by 50% was calculated using Graphpad Prism 5.0 program.
# U-87MG = tested on: U-87MG
# Description: as §1, §2
# A549 = tested on: A549
# Description: as §1, §2
# T98G = tested on: T98G
# Description: as §1, §2
# HCT116 = tested on: HCT116
# Description: as §1, §2
compound,measurement,setting,value
Cc1c(-c2nc(-c3ccnc(N)c3F)ccc2O)nc(N)nc1C1CCCN(C)C1 (stereo not drawn) [Example 46],GI50,"NCI-H23; Homo sapiens, NCI-H23, 72 h",410 nM
same,GI50,"U-87MG; Homo sapiens, U-87 MG, 72 h",150 nM
same,GI50,"A549; Homo sapiens, A549, 72 h",210 nM
same,GI50,"T98G; Homo sapiens, T98G, 72 h",250 nM
same,GI50,"HCT116; Homo sapiens, HCT-116, 72 h",140 nM
"CCc1cnc(N)nc1-c1nc(-c2ccnc(N)c2F)ccc1O [Example 56, 2′-amino-6-(2-amino-5-ethylpyrimidin-4-yl)-3′-fluoro-[2,4′-bipyridin]-5-ol]",GI50,NCI-H23; 72 hrs,90 nM
same,GI50,"U-87MG; Homo sapiens, U-87 MG, 72 h",60 nM
same,GI50,"A549; Homo sapiens, A549, 72 h",80 nM
same,GI50,T98G; 72 hrs,130 nM
same,GI50,HCT116; 72 hrs,30 nM
"CC(C)N1CCCC(c2cc(-c3nc(-c4ccnc(N)c4F)ccc3O)nc(N)n2)C1 (stereo not drawn) [Example 41, 2′-amino-6-(2-amino-6-(1-isopropylpiperidin-3-yl)pyrimidin-4-yl)-3′-fluoro-[2,4′-bipyridin]-5-ol]",GI50,"NCI-H23; Homo sapiens, NCI-H23, 72 h",70 nM
same,GI50,"U-87MG; Homo sapiens, U-87 MG, 72 h",40 nM
same,GI50,"A549; Homo sapiens, A549, 72 h",40 nM
same,GI50,"T98G; Homo sapiens, T98G, 72 h",110 nM
same,GI50,"HCT116; Homo sapiens, HCT-116, 72 h",20 nM
"Cc1cc(-c2nc(-c3cccc(N)c3)ccc2O)nc(N)n1 [Example 30, 2-(2-amino-6-methylpyrimidin-4-yl)-6-(3-aminophenyl)pyridin-3-ol]",GI50,"HCT116; Homo sapiens, HCT-116, 72 h",720 nM
"CC(C)N1CCC(c2cc(-c3nc(-c4ccnc(N)c4F)ccc3O)nc(N)n2)CC1 [Example 88, 2′-amino-6-(2-amino-6-(1-isopropylpiperidin-4-yl)pyrimidin-4-yl)-3′-fluoro-[2,4′-bipyridin]-5-ol 4hydrochloride]",GI50,NCI-H23; 72 hrs,40 nM
same,GI50,U-87MG; 72 hrs,10 nM
same,GI50,A549; 72 hrs,20 nM
same,GI50,T98G; 72 hrs,20 nM
same,GI50,HCT116; 72 hrs,40 nM
CC(C)c1cnc(N)nc1-c1nc(-c2ccnc(N)c2F)ccc1O [Example 58],GI50,"NCI-H23; Homo sapiens, NCI-H23, 72 h",60 nM
same,GI50,"U-87MG; Homo sapiens, U-87 MG, 72 h",60 nM
same,GI50,"A549; Homo sapiens, A549, 72 h",70 nM
same,GI50,"T98G; Homo sapiens, T98G, 72 h",40 nM
same,GI50,"HCT116; Homo sapiens, HCT-116, 72 h",30 nM
"CCN1CCC(c2nc(N)nc(-c3nc(-c4ccnc(N)c4F)ccc3O)c2C)CC1 [Example 43, 2′-amino-6-(2-amino-6-(1-ethylpiperidin-4-yl)-5-methylpyrimidin-4-yl)-3′-fluoro-[2,4′-bipyridin]-5-ol]",GI50,"NCI-H23; Homo sapiens, NCI-H23, 72 h",960 nM
same,GI50,"U-87MG; Homo sapiens, U-87 MG, 72 h",280 nM
same,GI50,"A549; Homo sapiens, A549, 72 h",460 nM
same,GI50,"T98G; Homo sapiens, T98G, 72 h",460 nM
same,GI50,"HCT116; Homo sapiens, HCT-116, 72 h",230 nM
"Cc1cnc(N)nc1-c1nc(-c2ccnc(N)c2F)ccc1O [Example 55, 2′-amino-6-(2-amino-5-methylpyrimidin-4-yl)-3′-fluoro-[2,4′-bipyridin]-5-ol]",GI50,NCI-H23; 72 hrs,180 nM
same,GI50,"U-87MG; Homo sapiens, U-87 MG, 72 h",110 nM
same,GI50,A549; 72 hrs,160 nM
same,GI50,T98G; 72 hrs,130 nM
same,GI50,"HCT116; Homo sapiens, HCT-116, 72 h",50 nM
"Nc1nccc(-c2nc(-c3cccnc3)ccc2O)n1 [Example 11, 6-(2-aminopyrimidin-4-yl)-[2,3′-bipyridin]-5-ol]",GI50,"HCT116; Homo sapiens, HCT-116, 72 h",6080 nM
"Cc1nc(N)nc(-c2nc(-c3ccnc(N)c3F)ccc2O)c1C [Example 101, 2′-amino-6-(2-amino-5,6-dimethylpyrimidin-4-yl)-3′-fluoro-[2,4′-bipyridin]-5-ol 3hydrochloride]",GI50,NCI-H23; 72 hrs,230 nM
same,GI50,U-87MG; 72 hrs,230 nM
same,GI50,A549; 72 hrs,120 nM
same,GI50,T98G; 72 hrs,290 nM
same,GI50,HCT116; 72 hrs,60 nM
"CN1CCCC(c2cc(-c3nc(-c4ccnc(N)c4F)ccc3O)nc(N)n2)C1 (stereo not drawn) [Example 89, 2′-amino-6-(2-amino-6-(1-methylpiperidin-3-yl)pyrimidin-4-yl)-3′-fluoro-[2,4′-bipyridin]-5-ol 4hydrochloride]",GI50,NCI-H23; 72 hrs,20 nM
same,GI50,A549; 72 hrs,10 nM
same,GI50,T98G; 72 hrs,20 nM
"CCCN1CCC(c2cc(-c3nc(-c4ccnc(N)c4F)ccc3O)nc(N)n2)CC1 [Example 36, 2′-amino-6-(2-amino-6-(1-propylpiperidin-4-yl)pyrimidin-4-yl)-3′-fluoro-[2,4′-bipyridin]-5-ol]",GI50,"NCI-H23; Homo sapiens, NCI-H23, 72 h",50 nM
same,GI50,"U-87MG; Homo sapiens, U-87 MG, 72 h",10 nM
same,GI50,"A549; Homo sapiens, A549, 72 h",20 nM
same,GI50,"T98G; Homo sapiens, T98G, 72 h",20 nM
same,GI50,HCT116; 72 hrs,10 nM
"Cc1c(-c2nc(-c3ccnc(N)c3F)ccc2O)nc(N)nc1C1CCCN(C(C)C)C1 (stereo not drawn) [Example 99, 2′-amino-6-(2-amino-6-(1-isopropylpiperidin-3-yl)-5-methylpyrimidin-4-yl)-3′-fluoro-[2,4′-bipyridin]-5-ol 4hydrochloride]",GI50,U-87MG; 72 hrs,2570 nM
same,GI50,"T98G; Homo sapiens, T98G, 72 h",3790 nM
same,GI50,HCT116; 72 hrs,2030 nM
"CCCN1CCC(c2nc(N)nc(-c3nc(-c4ccnc(N)c4F)ccc3O)c2C)CC1 [Example 95, 2′-amino-6-(2-amino-5-methyl-6-(1-propylpiperidin-4-yl)pyrimidin-4-yl)-3′-fluoro-[2,4′-bipyridin]-5-ol 4hydrochloride]",GI50,NCI-H23; 72 hrs,150 nM
same,GI50,U-87MG; 72 hrs,100 nM
same,GI50,A549; 72 hrs,80 nM
same,GI50,T98G; 72 hrs,160 nM
same,GI50,HCT116; 72 hrs,60 nM
"Nc1nc(-c2nc(-c3ccnc(N)c3F)ccc2O)cc(C2CCOCC2)n1 [Example 85, 2′-amino-6-(2-amino-6-(tetrahydro-2H-pyran-4-yl)pyrimidin-4-yl)-3′-fluoro-[2,4′-bipyridin]-5-ol 3hydrochloride]",GI50,NCI-H23; 72 hrs,140 nM
same,GI50,U-87MG; 72 hrs,70 nM
same,GI50,A549; 72 hrs,60 nM
same,GI50,T98G; 72 hrs,90 nM
same,GI50,HCT116; 72 hrs,20 nM
"Nc1cc(-c2ncc(O)c(-c3ccnc(N)n3)n2)ccn1 [Example 5, 2′-amino-2-(2-aminopyridin-4-yl)-[4,4′-bipyrimidin]-5-ol]",GI50,"HCT116; Homo sapiens, HCT-116, 72 h",3590 nM
"Cc1cc(-c2nc(-c3ccncc3F)ccc2O)nc(N)n1 [Example 26, 6-(2-amino-6-methylpyrimidin-4-yl)-3′-fluoro-[2,4′-bipyridin]-5-ol]",GI50,"HCT116; Homo sapiens, HCT-116, 72 h",1180 nM
"CN1CCC(c2cc(-c3nc(-c4ccnc(N)c4F)ccc3O)nc(N)n2)CC1 [Example 79, 2′-amino-6-(2-amino-6-(1-methylpiperidin-4-yl)pyrimidin-4-yl)-3′-fluoro-[2,4′-bipyridin]-5-ol oxalate]",GI50,"HCT116; 72 hrs, oxalate",40 nM
"Nc1nccc(-c2ccc(O)c(-c3ccnc(N)n3)n2)n1 [Example 63, 2,6-bis(2-aminopyrimidin-4-yl)pyridin-3-ol malonate]",GI50,HCT116; 72 hrs,190 nM
"CN1CCC(c2cc(-c3nc(-c4ccnc(N)c4F)ccc3O)nc(N)n2)CC1 [Example 80, 2′-amino-6-(2-amino-6-(1-methylpiperidin-4-yl)pyrimidin-4-yl)-3′-fluoro-[2,4′-bipyridin]-5-ol malonate]",GI50,HCT116; 72 hrs,140 nM
"CC(C)c1cc(-c2nc(-c3ccnc(N)c3F)ccc2O)nc(N)n1 [Example 81, 2′-amino-6-(2-amino-6-isopropylpyrimidin-4-yl)-3′-fluoro-[2,4′-bipyridin]-5-ol 3hydrochloride]",GI50,NCI-H23; 72 hrs,70 nM
same,GI50,A549; 72 hrs,140 nM
same,GI50,HCT116; 72 hrs,20 nM
"Nc1cccc(-c2nc(-c3ccnc(N)n3)ccc2O)n1 [Example 7, 6′-amino-6-(2-aminopyrimidin-4-yl)-[2,2′-bipyridin]-3-ol]",GI50,"HCT116; Homo sapiens, HCT-116, 72 h",670 nM
"CC(C)c1cc(-c2nc(-c3ccnc(N)c3F)ccc2O)nc(N)n1 [Example 82, 2′-amino-6-(2-amino-6-isopropylpyrimidin-4-yl)-3′-fluoro-[2,4′-bipyridin]-5-ol 2acetate]",GI50,NCI-H23; 72 hrs,90 nM
same,GI50,A549; 72 hrs,170 nM
same,GI50,HCT116; 72 hrs,20 nM
"Nc1nccc(-c2ccc(O)c(-c3ccnc(N)n3)n2)n1 [Example 64, 2,6-bis(2-aminopyrimidin-4-yl)pyridin-3-ol sulfate]",GI50,HCT116; 72 hrs,190 nM
"Cc1cc(-c2nc(-c3ccncc3)ccc2O)nc(N)n1 [Example 25, 6-(2-amino-6-methylpyrimidin-4-yl)-[2,4′-bipyridin]-5-ol]",GI50,"HCT116; Homo sapiens, HCT-116, 72 h",290 nM
"Nc1nccc(-c2ccc(O)c(-c3ccnc(N)n3)n2)n1 [Example 62, 2,6-bis(2-aminopyrimidin-4-yl)pyridin-3-ol oxalate]",GI50,"HCT116; 72 hrs, oxalate",190 nM
"Cc1cc(-c2nc(-c3ccc(O)cc3)ccc2O)nc(N)n1 [Example 27, 2-(2-amino-6-methylpyrimidin-4-yl)-6-(4-hydroxyphenyl)pyridin-3-ol]",GI50,"HCT116; Homo sapiens, HCT-116, 72 h",290 nM
"Cc1c(-c2nc(-c3ccnc(N)c3F)ccc2O)nc(N)nc1C1CCCN(C(C)C)C1 (stereo not drawn) [Example 48, 2′-amino-6-(2-amino-6-(1-isopropylpiperidin-3-yl)-5-methylpyrimidin-4-yl)-3′-fluoro-[2,4′-bipyridin]-5-ol]",GI50,"U-87MG; Homo sapiens, U-87 MG, 72 h",3820 nM
same,GI50,"HCT116; Homo sapiens, HCT-116, 72 h",2910 nM
"CN1CCC(c2cc(-c3nc(-c4ccnc(N)c4F)ccc3O)nc(N)n2)CC1 [Example 78, 2′-amino-6-(2-amino-6-(1-methylpiperidin-4-yl)pyrimidin-4-yl)-3′-fluoro-[2,4′-bipyridin]-5-ol 2acetate]",GI50,HCT116; 72 hrs,40 nM
"Cc1cc(-c2nc(-c3ccc(O)cc3F)ccc2O)nc(N)n1 [Example 29, 2-(2-amino-6-methylpyrimidin-4-yl)-6-(2-fluoro-4-hydroxyphenyl)pyridin-3-ol]",GI50,"HCT116; Homo sapiens, HCT-116, 72 h",1260 nM
"Nc1nccc(-c2cnc(O)c(-c3ccnc(N)n3)c2)n1 [Example 6, 3,5-bis(2-aminopyrimidin-4-yl)pyridin-2-ol]",GI50,"HCT116; Homo sapiens, HCT-116, 72 h",2300 nM
